# Assay results taken from publication PMC5218480 (PLoS ONE, 2017).
# System: MV-4-11 cells
# Assay: Gene expression microarray analysis (Affymetrix PrimeView) and GSEA
# Format: cell-based, human
# Settings: gene FGFR1OP; ACY-1035 1 mM; LIST F
compound,measurement,value
Nc1ccc(-c2cccs2)cc1NC(=O)c1ccc2c(c1)cc(C1CC1)n2CCN1CCOCC1 [ACY-1035],"RFU, FGFR1OP (ProbeSet 11751329_s_at)",243.91 RFU
